Assay results from ChEMBL document CHEMBL1125509, “Synthesis and biological activity of CCK heptapeptide analogues. Effects of conformational constraints and standard modifications on receptor subtype selectivity, functional activity in vitro, and appetite suppression in vivo” (J Med Chem, 1992).
Activity calls are given as the source filed them. No cut-off for these calls is given here. *1 amine or outer side, *2 acyl side, *3 side chain or, on linkers, in order; H or OH if unused. Where a SMILES comes first, the peptide text is derived from it. [ ]: non-standard residue; d: D form. The star is where a group is joined. Hydrocinnamoyl(4-OSO3H) = O=C(CCc1ccc(OS(=O)(=O)O)cc1)*; X2 = O=C([C@@H]1CC(OS(=O)(=O)O)CN1[*:1])[*:2]; X5 = CCC[C@H]1CCN([*:1])[C@@H]1C(=O)[*:2]; X4 = O=C(c1ccc2cc(OS(=O)(=O)O)ccc2c1)*; X1 = CCCC1CCN([*:1])[C@@H]1C(=O)[*:2]; X6 = O=C(/C=C/c1ccc(OS(=O)(=O)O)cc1)*; X3 = O=C(/C(=C/c1ccccc1)N[*:1])[*:2]; NMeF = CN[C@@H](Cc1ccccc1)C(=O)O; NMeD = CN[C@@H](CC(=O)O)C(=O)O; NMeL = CN[C@@H](CC(C)C)C(=O)O; Nle = CCCC[C@H](N)C(=O)O; Ava = NCCCCC(=O)O

Legend:
[1] = target: T1, Cholecystokinin receptor type A (Cavia porcellus, UniProt Q63931); test: Evaluated in vitro for its binding affinity towards cholecystokinin type A receptor of guinea pig pancreas
T1 sequence (Q63931 whole entry): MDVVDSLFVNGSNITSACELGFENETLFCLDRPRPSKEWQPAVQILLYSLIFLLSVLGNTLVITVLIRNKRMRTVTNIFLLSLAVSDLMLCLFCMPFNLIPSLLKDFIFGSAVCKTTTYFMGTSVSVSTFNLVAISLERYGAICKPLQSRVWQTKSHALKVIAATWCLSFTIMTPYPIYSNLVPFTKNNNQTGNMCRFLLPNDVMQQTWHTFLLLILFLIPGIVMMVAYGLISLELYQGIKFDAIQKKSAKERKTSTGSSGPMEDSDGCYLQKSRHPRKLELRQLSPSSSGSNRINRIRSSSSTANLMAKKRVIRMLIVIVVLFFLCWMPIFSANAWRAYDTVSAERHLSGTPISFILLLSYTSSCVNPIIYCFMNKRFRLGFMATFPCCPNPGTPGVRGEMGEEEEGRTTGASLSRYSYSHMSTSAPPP

[2] = target: T2, Cholecystokinin receptor type A (Cavia porcellus) (UniProt Q63931); test: Ratio of binding affinities for CCK-A receptor of guinea pig pancreas (IC50(nM)) to CCK-B receptor of guinea pig cortex (IC50(nM)); type: tissue-based
T2 sequence (whole entry): T1 sequence (Q63931 whole entry)

[3] = target: Cholecystokinin receptor (Rattus norvegicus) (UniProt P30551+P30553); test: Evaluated for effective dose required for suppression of food intake in rat (0-60 min); type: functional
[4] = tested on: Rattus norvegicus; test: Compound was evaluated for % suppression (at 30 nmol/kg) of food intake in rat (360-420 min); not significant; type: functional, organism-based
[5] = tested on: Cholecystokinin receptor type A (Cavia porcellus); test: Evaluated in vitro for maximal stimulatory activity for PI hydrolysis relative to CCK-8 in guinea pig tissue
[6] = target: Cholecystokinin receptor type A (Cavia porcellus); test: Evaluated in vitro for maximal stimulatory activity for amylase release relative to CCK-8 in guinea pig tissue
[7] = tested on: Cholecystokinin receptor type A (Cavia porcellus); test: Ratio for CCK-A receptor of guinea pig pancreas (IC50(nM)) to CCK-B receptor of guinea pig cortex (IC50(nM))
[8] = species: Cavia porcellus; test: In vitro maximal stimulatory activity for amylase release relative to CCK-8 in guinea pig tissue at 10 uM; type: functional
[9] = species: Cavia porcellus; test: In vitro maximal stimulatory activity for amylase release relative to CCK-8 in guinea pig tissue at 20 nM; type: functional
[10] = species: Cavia porcellus; test: In vitro maximal stimulatory activity for amylase release relative to CCK-8 in guinea pig tissue at 5 nM; type: functional
[11] = species: Cavia porcellus; test: In vitro maximal stimulatory activity for amylase release relative to CCK-8 in guinea pig tissue at 3 uM; type: functional
[12] = species: Cavia porcellus; test: (§1) Compound (10e-4 M) was evaluated in vitro for maximal stimulatory activity for PI hydrolysis relative to CCK-8 in guinea pig tissue; type: functional
[13] = tested on: Rattus norvegicus; test: Compound was evaluated for % suppression (at 30 nmol/kg) of food intake in rat (360-420 min); type: functional
[14] = as §1; type: functional

SMILES	IC50 [1] [nM]	Max response [5] [%]	EC50 [6] [nM]	Ratio [7]	also measured
CCCC[C@H](NC(=O)[C@H](Cc1c[nH]c2ccccc12)NC(=O)CN1CC[C@H](NC(=O)CCc2ccc(OS(=O)(=O)O)cc2)C1=O)C(=O)N[C@@H](CC(=O)O)C(=O)N[C@@H](Cc1ccccc1)C(N)=O	130	86	71	9	
CC(C)C[C@H](NC(=O)[C@H](Cc1c[nH]c2ccccc12)NC(=O)CCCCNC(=O)CCc1ccc(OS(=O)(=O)O)cc1)C(=O)N[C@@H](CC(=O)O)C(=O)N[C@@H](Cc1ccccc1)C(N)=O ({Hydrocinnamoyl(4-OSO3H)-Ava}-WLDF-NH2)	150	64	140	143	
CCC[C@H]1CCN(C(=O)[C@H](Cc2c[nH]c3ccccc23)NC(=O)CNC(=O)[C@@H]2CCCN2C(=O)CCc2ccc(OS(=O)(=O)O)cc2)[C@@H]1C(=O)N[C@@H](CC(=O)O)C(=O)N(C)[C@@H](Cc1ccccc1)C(N)=O ({Hydrocinnamoyl(4-OSO3H)}-PGW[X5]D[NMeF]-NH2) [listing 1 of 2 here]	7.3				
CCC[C@H]1CCN(C(=O)[C@H](Cc2c[nH]c3ccccc23)NC(=O)CNC(=O)[C@@H]2CCCN2C(=O)CCc2ccc(OS(=O)(=O)O)cc2)[C@@H]1C(=O)N[C@@H](CC(=O)O)C(=O)N(C)[C@@H](Cc1ccccc1)C(N)=O ({Hydrocinnamoyl(4-OSO3H)}-PGW[X5]D[NMeF]-NH2) [listing 2 of 2 here]					Stimulation [10]: 83%
CCCC[C@H](NC(=O)CCc1ccc(OS(=O)(=O)O)cc1)C(=O)NCC(=O)N[C@@H](Cc1c[nH]c2ccccc12)C(=O)N1CCC[C@H]1C(=O)N[C@@H](CC(=O)O)C(=O)N(C)[C@@H](Cc1ccccc1)C(N)=O ({Hydrocinnamoyl(4-OSO3H)}-[Nle]GWPD[NMeF]-NH2)	81				Stimulation [11]: 98%
CCCC[C@H](NC(=O)CCc1ccc(OS(=O)(=O)O)cc1)C(=O)NCC(=O)N[C@@H](Cc1c[nH]c2ccccc12)C(=O)N[C@@H](CCCC)C(=O)N(C)[C@@H](CC(=O)O)C(=O)N[C@@H](Cc1ccccc1)C(N)=O ({Hydrocinnamoyl(4-OSO3H)}-[Nle]GW[Nle][NMeD]F-NH2)					Max response [12]: 100%; Supression [13]: 29%
CCCC[C@H](NC(=O)CCc1ccc(OS(=O)(=O)O)cc1)C(=O)NCC(=O)N[C@@H](Cc1c[nH]c2ccccc12)C(=O)N[C@@H](CCCC)C(=O)N1CC(OS(=O)(=O)O)C[C@H]1C(=O)N[C@@H](Cc1ccccc1)C(N)=O (stereo partly specified) ({Hydrocinnamoyl(4-OSO3H)}-[Nle]GW[Nle][X2]F-NH2)				0.03	Max response [12]: 82%; ED50 [3]: > 1 µmol/kg; Supression [4]: inactive
CCCC[C@H](NC(=O)CCc1ccc(OS(=O)(=O)O)cc1)C(=O)NCC(=O)N[C@@H](Cc1c[nH]c2ccccc12)C(=O)N1CCC(CCC)[C@H]1C(=O)N[C@@H](CC(=O)O)C(=O)N(C)[C@@H](Cc1ccccc1)C(N)=O (stereo partly specified) ({Hydrocinnamoyl(4-OSO3H)}-[Nle]GW[X1]D[NMeF]-NH2)				14.3	Max response [12]: 83%; ED50 [3]: 0.00877 µmol/kg; Supression [4]: inactive

The next lines start with results.

IC50 [1] [nM]	Max response [5] [%]	EC50 [6] [nM]	Ratio [7]	SMILES	also measured
0.77	100	0.99		CCCC[C@H](NC(=O)CCc1ccc(OS(=O)(=O)O)cc1)C(=O)NCC(=O)N[C@@H](Cc1c[nH]c2ccccc12)C(=O)N[C@@H](CCCC)C(=O)N[C@@H](CC(=O)O)C(=O)N[C@@H](Cc1ccccc1)C(N)=O	Ratio [2]: 1.53; ED50 [3]: 0.00398 µmol/kg; Supression [4]: inactive
150	52		18.5	CCCC[C@H](NC(=O)[C@H](Cc1c[nH]c2ccccc12)NC(=O)CNC(=O)[C@@H](CCCC)NC(=O)CCc1ccc(OS(=O)(=O)O)cc1)C(=O)N[C@@H](CC(=O)O)C(=O)N[C@@H](Cc1ccccc1)C(N)=O	
900	16		0.04	CCCC[C@H](NC(=O)c1ccc2cc(OS(=O)(=O)O)ccc2c1)C(=O)NCC(=O)N[C@@H](Cc1c[nH]c2ccccc12)C(=O)N[C@@H](CCCC)C(=O)N[C@@H](CC(=O)O)C(=O)N[C@@H](Cc1ccccc1)C(N)=O (X4-[Nle]GW[Nle]DF-NH2)	Stimulation [8]: 44%
23				CCCC[C@H](NC(=O)/C=C/c1ccc(OS(=O)(=O)O)cc1)C(=O)NCC(=O)N[C@@H](Cc1c[nH]c2ccccc12)C(=O)N[C@@H](CCCC)C(=O)N[C@@H](CC(=O)O)C(=O)N[C@@H](Cc1ccccc1)C(N)=O (X6-[Nle]GW[Nle]DF-NH2)	Stimulation [9]: 105%
0.67	120	0.64	1.1	CCCC[C@H](NC(=O)[C@H](Cc1c[nH]c2ccccc12)NC(=O)CNC(=O)[C@H](CC(C)C)NC(=O)CCc1ccc(OS(=O)(=O)O)cc1)C(=O)N[C@@H](CC(=O)O)C(=O)N[C@@H](Cc1ccccc1)C(N)=O ({Hydrocinnamoyl(4-OSO3H)}-LGW[Nle]DF-NH2)	
140	80	15	625	CCCC[C@H](NC(=O)CCc1ccc(OS(=O)(=O)O)cc1)C(=O)NCC(=O)N[C@@H](Cc1c[nH]c2ccccc12)C(=O)N(C)[C@@H](CC(C)C)C(=O)N[C@@H](CC(=O)O)C(=O)N[C@@H](Cc1ccccc1)C(N)=O ({Hydrocinnamoyl(4-OSO3H)}-[Nle]GW[NMeL]DF-NH2)	
			0.1	CCCC[C@H](NC(=O)CCc1ccc(OS(=O)(=O)O)cc1)C(=O)NCC(=O)N[C@@H](Cc1c[nH]c2ccccc12)C(=O)N[C@@H](CCCC)C(=O)N[C@@H](CC(=O)O)C(=O)N(C)[C@@H](Cc1ccccc1)C(N)=O ({Hydrocinnamoyl(4-OSO3H)}-[Nle]GW[Nle]D[NMeF]-NH2)	Max response [12]: 94%; ED50 [3]: 0.00245 µmol/kg; Supression [13]: 30%
			0.62	CCCC[C@H](NC(=O)CCc1ccc(OS(=O)(=O)O)cc1)C(=O)NCC(=O)N[C@@H](Cc1c[nH]c2ccccc12)C(=O)N[C@@H](CCCC)C(=O)N[C@@H](CC(=O)O)C(=O)N/C(=C\c1ccccc1)C(N)=O ({Hydrocinnamoyl(4-OSO3H)}-[Nle]GW[Nle]D[X3]-NH2)	Max response [14]: 69%
